Data on one compound can be found in patent publication US20220062296A1, “COMBINATIONS OF GABAA ALPHA 5 AGONISTS AND SV2A INHIBITORS AND METHODS OF USING IN THE TREATMENT OF COGNITIVE IMPAIRMENT” (AGENEBIO, INC., priority 2020, published 2022).

In experiment [1] the test system is entorhinal cortex of aMCI subjects. Briefly: fMRI activity in entorhinal cortex (EC) during explicit 3-alternative forced choice task. Format: in vivo, human. The note with it: levetiracetam 125 mg twice a day for two weeks. How it is done: A within-subjects trial of 8 weeks duration, involving 17 amnestic MCI (aMCI) subjects and 17 age-matched controls with a low dose treatment of levetiracetam is conducted. During the course of the study, each aMCI subject receives both drug and placebo treatments separately in two periods of two weeks each, with the order of treatments among different aMCI subjects counterbalanced (see FIG. 4). Age-matched control subjects treated with placebo serve as a further control. Cognitive testing and fMRI imaging data are obtained from the subjects after each two-week period of drug/placebo treatment. Imaging data are obtained through high-resolution methods developed in the Stark laboratory. Data are collected on a Phillips 3 Tesla scanner (Eindhoven, The Netherlands) equipped with an 8-channel SENSE (Sensitivity Encoding) head coil, located at the F.M. Kirby Research Center for Functional Brain Imaging at the Kennedy Krieger Institute (Baltimore, Md.). […] Group data are analyzed using a two-way Analysis of Variance (ANOVA) with trial types and group as fixed factors, and subject as a random factor nested within group. […] The activity of the subject's medial temporal lobe is measured by functional MRI during the subject's participation in an explicit 3-alternative forced choice task, where participants view novel, repeated and similar (“lure”) stimuli. […]

Another experiment relates to aMCI subjects. Briefly: Explicit 3-alternative forced choice task (lure identification). Format: in vivo, human.
From the text: There are various tests known in the art for assessing cognitive function in humans, for example and without limitation, the clinical global impression of change scale (CIBIC-plus scale); the Mini Mental State Exam (MMSE); the Neuropsychiatric Inventory (NPI); the Clinical Dementia Rating Scale (CDR); the Cambridge Neuropsychological Test Automated Battery (CANTAB); the Sandoz Clinical Assessment-Geriatric (SCAG), the Buschke Selective Reminding Test (Buschke and Fuld, 1974); the Verbal Paired Associates subtest; the Logical Memory subtest; the Visual Reproduction sub test of the Wechsler Memory Scale-Revised (WMS-R) (Wechsler, 1997); the Benton Visual Retention Test, or MATRICS consensus neuropsychological test battery which includes tests of working memory, speed of processing, attention, verbal learning, visual learning, reasoning and problem solving and social cognition. See Folstein et al., J Psychiatric Res 12: 189-98, (1975); Robbins et al., Dementia 5: 266-81, (1994); Rey, L'examen clinique en psychologie, (1964); Kluger et al., J Geriatr Psychiatry Neurol 12:168-79, (1999); Marquis et al., 2002 and Masur et al., 1994. Also see Buchanan, R. W., Keefe, R. S. E., Umbricht, D., Green, M. F., Laughren, T., and Marder, S. R. (2011), The FDA-NIMH-MATRICS guidelines for clinical trial design of cognitive-enhancing drugs: what do we know 5 years later? Schizophr. Bull. 37, 1209-1217. Another example of a cognitive test in humans is the explicit 3-alternative forced choice task. […]
(§1) The activity of the subject's medial temporal lobe is measured by functional MRI during the subject's participation in an explicit 3-alternative forced choice task, where participants view novel, repeated and similar (“lure”) stimuli. […]
as §1

For `CC[C@@H](C(N)=O)N1CCCC1=O` [levetiracetam, (2S)-2-(2-oxopyrrolidin-1-yl)butanamide], the “EC activity during memory judgments” value in experiment [1] is “increases EC activity”. Moreover, the “performance in the explicit 3-alternative forced choice task” value in the experiment on aMCI subjects (levetiracetam 62.5 mg BID, p=0.041) was “improves significantly”; in the experiment on aMCI subjects (levetiracetam 125 mg twice a day for two weeks, p=0.039) it was “improves significantly”; in the experiment on aMCI subjects (levetiracetam 250 mg BID, p=0.2396) it was “does not significantly improve”.
